In patent US20260258036A1, “INHIBITORS OF HUMAN ALDOSTERONE SYNTHASE (CYP11B2)” («TARGET MEDICALS» LIMITED LIABILITY COMPANY, priority 2022, published 2026):

Target: T1, recombinant CYP11B2 (Homo sapiens, UniProt P19099)
T1 sequence (P19099 25-503): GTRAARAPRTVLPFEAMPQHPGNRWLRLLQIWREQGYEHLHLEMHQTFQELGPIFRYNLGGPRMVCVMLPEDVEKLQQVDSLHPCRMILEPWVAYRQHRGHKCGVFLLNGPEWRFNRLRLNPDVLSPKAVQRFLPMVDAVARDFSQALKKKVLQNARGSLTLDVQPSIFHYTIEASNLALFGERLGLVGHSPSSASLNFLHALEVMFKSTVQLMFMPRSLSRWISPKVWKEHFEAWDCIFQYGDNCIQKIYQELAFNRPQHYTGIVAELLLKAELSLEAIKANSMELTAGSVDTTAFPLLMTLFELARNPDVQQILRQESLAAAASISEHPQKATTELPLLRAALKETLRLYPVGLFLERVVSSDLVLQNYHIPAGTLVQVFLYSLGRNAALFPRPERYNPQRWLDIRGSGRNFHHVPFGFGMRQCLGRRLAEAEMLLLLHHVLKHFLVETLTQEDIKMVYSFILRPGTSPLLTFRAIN
Assay: Inhibition of CYP11B2 activity in a reconstructed enzyme system (HPLC with UV detector)
Type: biochemical
Conditions: compounds 2_xx, 3_xx, 4_01; test compound final concentration ≤2 μM; corticosterone substrate; 30 minutes at 37° C.; read-out: Level of CYP11B2 activity inhibition
Procedure: The authors of the present invention investigated the activity of the compounds according to the invention as inhibitors of CYP11 B2 when analyzed in a reconstructed system containing 0.5 μm recombinant CYP1 1B2, 0.3 μm human adrenodoxin reductase, 2 μm human adrenodoxin, 100 μm corticosterone as a control reaction to detect the formation of a product with using an HPLC system with a UV detector. The test compound is added to the reaction mixture to a final concentration of ≤2 μM. The concentrated protein mixture was diluted with buffer to a final volume of 0.5 ml, pre-incubated for 10 min at 37° C., followed by the addition of the substrate. Reactions are initiated by adding NADPH (nicotinamide adenine dinucleotide phosphate) to a final concentration of 0.25 mM with a regenerating system (glucose-6-phosphate and glucose-6-phosphate dehydrogenase) in 25 mM potassium phosphate buffer, pH 7.4, containing 0.1 mM DTT (dithiothreitol), 0.1% Tween-20.4 mM MgCl2 and incubated at 37° C. After 30 minutes of incubation, the reaction is stopped by adding 5 ml of dichloromethane. The organic phase is isolated by centrifugation, evaporation, dissolution in ethanol and transferred to a vial for HPLC studies. A C18 Luna 100 Å 250×4, 6 mm column was used on an Agilent Technologies 1200 series instrument (USA) with ethanol as the mobile phase.
Activity (a) is calculated as the amount of product in nmol per minute per 1 nmol of CYP.
where k is the correction factor (k=1 is used as the molar extinction coefficients of steroid substrates and products similar at a detection wavelength of 254 nm), As is the peak area of the substrate, cs is the concentration of the substrate, Ap is the peak area of the product, ce is the concentration of CYP (cytochrome P450), t is the reaction time.
The level of inhibition of CYP11 B2 activity is expressed as a percentage, where 0% is defined as no inhibition in reactions without test compound and 100% is absolute inhibition by test compound.

Row | Structure (SMILES) | inhibition at 2 µM [%]
1 | CN1CCN(c2c(F)cc(S(=O)(=O)n3ccc4c(-c5cnc(C#N)cn5)cncc43)cc2F)CC1 [Compound 3_05, 5-(1-((3,5-difluoro-4-(4-methylpiperazin-1-yl)phenyl)sulfonyl)-1H-pyrrolo[2,3-c]pyridin-4-yl)pyrazine-2-carbonitrile] | 35 to 100
2 | CN1CCN(c2c(F)cc(S(=O)(=O)n3ccc4c(-c5ccc(C#N)cn5)cncc43)cc2F)CC1 [Compound 3_06, 6-(1-((3,5-difluoro-4-(4-methylpiperazin-1-yl)phenyl)sulfonyl)-1H-pyrrolo[2,3-c]pyridin-4-yl)nicotinonitrile] | 35 to 100
3 | CNc1ccc(-c2cncc3c2ccn3S(=O)(=O)c2cc(F)c(N3CCN(C)CC3)c(F)c2)nn1 [Compound 3_07, 6-(1-((3,5-difluoro-4-(4-methylpiperazin-1-yl)phenyl)sulfonyl)-1H-pyrrolo[2,3-c]pyridin-4-yl)-N-methylpyridazin-3-amine] | 35 to 100
4 | CNc1cnc(-c2cncc3c2ccn3S(=O)(=O)c2cc(F)c(N3CCN(C)CC3)c(F)c2)nc1 [Compound 3_08, 2-(1-((3,5-difluoro-4-(4-methylpiperazin-1-yl)phenyl)sulfonyl)-1H-pyrrolo[2,3-c]pyridin-4-yl)-N-methylpyrimidin-5-amine] | 20 to 100
5 | CN1CCN(c2c(F)cc(S(=O)(=O)n3ccc4c(-c5cnc(C#N)nc5)cncc43)cc2F)CC1 [Compound 3_09, 5-(1-((3,5-difluoro-4-(4-methylpiperazin-1-yl)phenyl)sulfonyl)-1H-pyrrolo[2,3-c]pyridin-4-yl)pyrimidine-2-carbonitrile] | 35 to 100
6 | CN1CCN(c2c(F)cc(S(=O)(=O)n3ccc4c(-c5ccc(C#N)nn5)cncc43)cc2F)CC1 [Compound 3_10, 6-(1-((3,5-difluoro-4-(4-methylpiperazin-1-yl)phenyl)sulfonyl)-1H-pyrrolo[2,3-c]pyridin-4-yl)pyridazine-3-carbonitrile] | 35 to 100
7 | CC(C)N1CCN(c2c(F)cc(S(=O)(=O)n3ccc4c(-c5ccccn5)cncc43)cc2F)CC1 [Compound 3_11, 1-((3,5-difluoro-4-(4-isopropylpiperazin-1-yl)phenyl)sulfonyl)-4-(pyridin-2-yl)-1H-pyrrolo[2,3-c]pyridine] | 35 to 100
8 | O=S(=O)(c1cc(F)c(N2CCN(C3CC3)CC2)c(F)c1)n1ccc2c(-c3ccccn3)cncc21 [Compound 3_12, 1-((4-(4-cyclopropylpiperazin-1-yl)-3,5-difluorophenyl)sulfonyl)-4-(pyridin-2-yl)-1H-pyrrolo[2,3-c]pyridine] | 20 to 100
9 | CN1CCCN(c2c(F)cc(S(=O)(=O)n3ccc4c(-c5ccccn5)cncc43)cc2F)CC1 [Compound 3_13, 1-((3,5-difluoro-4-(4-methyl-1,4-diazepan-1-yl)phenyl)sulfonyl)-4-(pyridin-2-yl)-1H-pyrrolo[2,3-c]pyridine] | 35 to 100
10 | O=S(=O)(c1cc(F)c(N2CCCNCC2)c(F)c1)n1ccc2c(-c3ccccn3)cncc21 [Compound 3_14, 1-((4-(1,4-diazepan-1-yl)-3,5-difluorophenyl)sulfonyl)-4-(pyridin-2-yl)-1H-pyrrolo[2,3-c]pyridine] | 35 to 100
11 | NC1CCN(c2c(F)cc(S(=O)(=O)n3ccc4c(-c5ccccn5)cncc43)cc2F)CC1 [Compound 3_15, 1-(2,6-difluoro-4-((4-(pyridin-2-yl)-1H-pyrrolo[2,3-c]pyridin-1-yl)sulfonyl)phenyl)piperidin-4-amine] | 35 to 100
12 | CN1CC2(C1)CN(c1c(F)cc(S(=O)(=O)n3ccc4c(-c5ccccn5)cncc43)cc1F)C2 [Compound 3_16, 1-((3,5-difluoro-4-(6-methyl-2,6-diazaspiro[3.3]heptan-2-yl)phenyl)sulfonyl)-4-(pyridin-2-yl)-1H-pyrrolo[2,3-c]pyridine] | 35 to 100
13 | CN1CC2CC1CN2c1c(F)cc(S(=O)(=O)n2ccc3c(-c4ccccn4)cncc32)cc1F (stereo not shown) [Compound 3_17, 1-((3,5-difluoro-4-(5-methyl-2,5-diazabicyclo[2.2.1]heptan-2-yl)phenyl)sulfonyl)-4-(pyridin-2-yl)-1H-pyrrolo[2,3-c]pyridine] | 35 to 100
14 | CN1CC2CC(C1)N2c1c(F)cc(S(=O)(=O)n2ccc3c(-c4ccccn4)cncc32)cc1F [Compound 3_18, 6-(2,6-difluoro-4-((4-(pyridin-2-yl)-1H-pyrrolo[2,3-c]pyridin-1-yl)sulfonyl)phenyl)-3-methyl-3,6-diazabicyclo[3.1.1]heptane] | 35 to 100
15 | CN1CC2CCC(C1)N2c1c(F)cc(S(=O)(=O)n2ccc3c(-c4ccccn4)cncc32)cc1F [Compound 3_19, 1-((3,5-difluoro-4-(3-methyl-3,8-diazabicyclo[3.2.1]octan-8-yl)phenyl)sulfonyl)-4-(pyridin-2-yl)-1H-pyrrolo[2,3-c]pyridine] | 35 to 100
16 | O=S(=O)(c1cc(F)c(N2CCN3CCC2C3)c(F)c1)n1ccc2c(-c3ccccn3)cncc21 (stereo not shown) [Compound 3_20, 1-((4-(1,4-diazabicyclo[3.2.1]octan-4-yl)-3,5-difluorophenyl)sulfonyl)-4-(pyridin-2-yl)-1H-pyrrolo[2,3-c]pyridine] | 35 to 100
17 | O=S(=O)(c1cc(F)c(N2CC3(CNC3)C2)c(F)c1)n1ccc2c(-c3ccccn3)cncc21 [Compound 3_21, 1-((3,5-difluoro-4-(2,6-diazaspiro[3.3]heptan-2-yl)phenyl)sulfonyl)-4-(pyridin-2-yl)-1H-pyrrolo[2,3-c]pyridine] | 20 to 100
18 | CNc1cnc(-c2cncc3c2ccn3S(=O)(=O)c2cc(F)c(N3CC4CN(C)CC4C3)c(F)c2)cn1 (stereo not shown) [Compound 3_22, 5-(1-((3,5-difluoro-4-(5-methylhexahydropyrrolo[3,4-c]pyrrol-2(1H)-yl)phenyl)sulfonyl)-1H-pyrrolo[2,3-c]pyridin-4-yl)-N-methylpyrazin-2-amine] | 35 to 100
19 | CN1CC2CN(c3c(F)cc(S(=O)(=O)n4ccc5c(-c6cnc(C#N)cn6)cncc54)cc3F)CC2C1 (stereo not shown) [Compound 3_23, 5-(1-((3,5-difluoro-4-(5-methylhexahydropyrrolo[3,4-c]pyrrol-2(1H)-yl)phenyl)sulfonyl)-1H-pyrrolo[2,3-c]pyridin-4-yl)pyrazine-2-carbonitrile] | 35 to 100
20 | CN1CC2CN(c3c(F)cc(S(=O)(=O)n4ccc5c(-c6ccc(C#N)nc6)cncc54)cc3F)CC2C1 (stereo not shown) [Compound 3_24, 5-(1-((3,5-difluoro-4-(5-methylhexahydropyrrolo[3,4-c]pyrrol-2(1H)-yl)phenyl)sulfonyl)-1H-pyrrolo[2,3-c]pyridin-4-yl)picolinonitrile] | 35 to 100
21 | O=S(=O)(c1cc(F)c(N2CC3CC2CN3)c(F)c1)n1ccc2c(-c3ccccn3)cncc21 (stereo not shown) [Compound 3_25, 1-((4-(2,5-diazabicyclo[2.2.1]heptan-2-yl)-3,5-difluorophenyl)sulfonyl)-4-(pyridin-2-yl)-1H-pyrrolo[2,3-c]pyridine] | 35 to 100
22 | O=S(=O)(c1cc(F)c(N2C3CCC2CNC3)c(F)c1)n1ccc2c(-c3ccccn3)cncc21 [Compound 3_26, 1-((4-(3,8-diazabicyclo[3.2.1]octan-8-yl)-3,5-difluorophenyl)sulfonyl)-4-(pyridin-2-yl)-1H-pyrrolo[2,3-c]pyridine] | 35 to 100
